Measurements published in patent US12428455B2, “Dominant negative CEBPB and CEBPD proteins and methods of use for decreasing viability of neoplastic cells” (The Trustees of Columbia University in the City of New York, priority 2018, dated 2025).

How the values were obtained:
[1] = test system: paclitaxel-resistant T98G cells; test: Cell number, paclitaxel-resistant T98G cells; format: cell-based; details: 6 days; 0 μM to 50 μM peptide or 0 nM to 50 nM paclitaxel
Description: Replicate cultures of T98G wild type cells and paclitaxel-resistant T98G cells were treated with 0 nM to 50 nM paclitaxel or 0 μM to 50 μM CP-dn-CEBPB or CP-dn-CEBPD peptides, maintained for 6 days, and then assessed for cell number. Paclitaxel resistant T98G cells were inhibited by both CP-dn-CEBPB (FIG. 28A) and CP-dn-CEBPD (FIG. 28B), but, as expected were not inhibited by paclitaxel (FIG. 28C). This establishes that CP-dn-CEBPB and CP-dn-CEBPD may be effective against chemotherapy-resistant cells.

[2] = test system: MDA-MB 231, HCT116, and A375 cells; test: Peptide treatment after doxorubicin pre-treatment, cell number; format: cell-based; details: 100 nM, 24 hours
Description: Replicate cultures of MDA-MB 231, HCT116, and A375 cells were pretreated with 100 nM doxorubicin for 24 hours, and then treated with 1 μM, 3 μM, 10 μM, or 20 μM CP-dn-CEBPB and CP-dn-CEBPD peptides, maintained for 6 days, and then assessed for cell number. The bar graphs of FIGS. 31A (MDA-MB 231, CP-dn-CEBPB), 31C (MDA-MB 231, CP-dn-CEBPBD, 31E (HCT116, CP-dn-CEBPBD), 31G (HCT116, CP-dn-CEBPD), 31I (A375, CP-dn-CEBPBB), and 31K (A375, CP-dn-CEBPBD) show relative cell numbers for each condition as compared to untreated controls. The line graphs of FIGS. 31B (MDA-MB 231, CP-dn-CEBPB), 31D (MDA-MB 231, CP-dn-CEBPBD), 31F (HCT116, CP-dn-CEBPB), 31H (HCT116, CP-dn-CEBPD), 31J (A375, CP-dn-CEBPB), and 31L (A375, CP-dn-CEBPBD) show the response as normalized in each case so that 100 represents the relative number of surviving cells that received the indicated level of doxorubicin, but no peptide treatment.

| Compound | inhibition of paclitaxel-resistant T98G cells (cell number) [1] | effect of doxorubicin pre-treatment on growth of the cancer cells [2] |
| --- | --- | --- |
| CC(=O)O[C@H]1C(=O)[C@@]2(C)[C@H]([C@H](OC(=O)c3ccccc3)[C@]3(O)C[C@H](OC(=O)[C@H](O)[C@@H](NC(=O)c4ccccc4)c4ccccc4)C(C)=C1C3(C)C)[C@]1(OC(C)=O)CO[C@@H]1C[C@@H]2O [paclitaxel, reference compound] | not inhibited |  |
| COc1cccc2c1C(=O)c1c(O)c3c(c(O)c1C2=O)C[C@@](O)(C(=O)CO)C[C@@H]3O[C@H]1C[C@H](N)[C@H](O)[C@H](C)O1 [doxorubicin, reference compound] |  | inhibited grown of the cancer cells |
